Measured values published in patent publication US9456971B2, “Moisturizer and cosmetic agent containing same” (AJINOMOTO CO., INC., priority 2012, dated 2016).

What was measured:
Format in all cases: physicochemical
[1] = Evaluation of moisturizer: hygroscopicity; conditions: A(%)=([2]−[1])/[1]×100; vacuum-dried sample allowed to absorb moisture at 65% RH, 25° C. for 14 days
Protocol: (§1) To study the hygroscopicity and water retention ability of moisturizers, the following experiment was performed.
Decanoyl proline sodium obtained in Synthetic Example 2, betaine (“aminocoat” manufactured by Asahi Kasei Corporation), sodium lactate (manufactured by Wako), sodium pyrrolidonecarboxylate (“AJIDEW” NL-50 manufactured by Ajinomoto Co., Inc.), glycerol (“concentrated glycerin” manufactured by Kao Corporation), and sorbitol (manufactured by Kao Corporation) were each dried under vacuum. The moisture level of the samples was measured by Karl Fischer moisture meter, the amount of water was determined, and the weight other than the moisture level was calculated ([1]). Thereafter, the samples were allowed to absorb moisture under the conditions of 65% RH, 25° C. for 14 days, and the weight was measured ([2]). Thereafter, the samples were dried under the conditions of 35% RH, 25° C. for 14 days, and the weight was measured ([3]).
• A(%)=([2]−[1])/[1]×100 was calculated and the samples were evaluated according to the following criteria. • ⊙: value of A is not less than 15% • ◯: value of A is not less than 12% and less than 15% • Δ: value of A is not less than 10% and less than 12% • ×: value of A is less than 10% [Water Retention Ability] • R(%)=[3]/[2]×100 was calculated and the samples were evaluated according to the following criteria. • ⊙: value of R is not less than 80% • ◯: value of R is not less than 60% and less than 80% • Δ: value of R is not less than 40% and less than 60% • ×: value of R is less than 40%

[2] = Evaluation of moisturizer: water retention ability; conditions: R(%)=[3]/[2]×100; after moisture absorption, dried at 35% RH, 25° C. for 14 days
Protocol: as §1
Decanoyl proline sodium obtained in Synthetic Example 2, betaine (“aminocoat” manufactured by Asahi Kasei Corporation), sodium lactate (manufactured by Wako), sodium pyrrolidonecarboxylate (“AJIDEW” NL-50 manufactured by Ajinomoto Co., Inc.), glycerol (“concentrated glycerin” manufactured by Kao Corporation), and sorbitol (manufactured by Kao Corporation) were each dried under vacuum. The moisture level of the samples was measured by Karl Fischer moisture meter, the amount of water was determined, and the weight other than the moisture level was calculated ([1]). Thereafter, the samples were allowed to absorb moisture under the conditions of 65% RH, 25° C. for 14 days, and the weight was measured ([2]). Thereafter, the samples were dried under the conditions of 35% RH, 25° C. for 14 days, and the weight was measured ([3]). […]

[3] = Stability against decomposition (acceleration test, HPLC); conditions: 30.0 wt % in water, 70° C. for 22 days
Protocol: Solutions of the compound of Synthetic Example 2 (decanoyl proline Na, 30.0 wt %) in water with or without addition of etidronate to 0.1 wt % were prepared, and they were subjected to an acceleration test at 70° C. for 22 days. The decomposition rate of the compound of Synthetic Example 2 in each composition was measured using HPLC (20A manufactured by Shimadzu Corporation).

| hygroscopicity [1] | decomposition rate of decanoyl proline Na ([3]; etidronate added to 0.1 wt %) | decomposition rate of decanoyl proline Na ([3]; etidronate not added) | Structure (SMILES) | water retention ability [2] |
| --- | --- | --- | --- | --- |
| ⊙ (value of A is not less than 15%) | 0.8% | 2.4% | CCCCCCCCCC(=O)N1CCC[C@H]1C(=O)[O-].[Na+] [Example 1, decanoyl proline sodium salt] | ⊙ (value of R is not less than 80%) |
| ⊙ (value of A is not less than 15%) | – | – | C[N+](C)(C)CC(=O)O [compound 1, betaine] | Δ (value of R is not less than 40% and less than 60%) |
| ⊙ (value of A is not less than 15%) | – | – | OCC(O)CO [compound 4, glycerol] | – |

| Structure (SMILES) | hygroscopicity [1] | decomposition rate of decanoyl proline Na ([3]; etidronate added to 0.1 wt %) | decomposition rate of decanoyl proline Na ([3]; etidronate not added) | water retention ability [2] |
| --- | --- | --- | --- | --- |
| CC(O)C(=O)[O-].[Na+] (stereo not drawn) [compound 2, sodium lactate] | ⊙ (value of A is not less than 15%) | – | – | – |
| O=C1CCC(C(=O)[O-])N1.[Na+] (stereo not drawn) [compound 3, sodium pyrrolidonecarboxylate] | ⊙ (value of A is not less than 15%) | – | – | – |
